# Data reported in patent US11124516B2, “Pyrrolo[1,2-A]pyrimidinyl carboxamide compounds and their use in the treatment of medical disorders” (Bial—Biotech Investments, Inc., priority 2016, dated 2021).
# Legend:
# [1] = target: T1, glucocerebrosidase (Gcase) (Homo sapiens, UniProt P04062); assay: Glucocerebrosidase (Gcase) activation assay, 4-methylumbelliferyl-beta-D-glucopyranoside substrate, fluorescence; type: biochemical; conditions: 10 nM GCase, 100 nM saposin C; for activation at 0.1 µM / activation at 1 µM: 0.25 h; for activation at 0.1 µM: pH 4.7, test compound at 0.1 μM, read-out: Percent Gcase Activation 0.1 μM Test Compound; for activation at 1 µM: pH 4.7, test compound at 1.0 μM, read-out: Percent Gcase Activation 1 μM Test Compound; for Percent Gcase Activation 0.1 μM Test Compound: test compound at 0.1 μM; for Percent Gcase Activation 0.1 μM Test Compound / Percent Gcase Activation 1 μM Test Compound: pH 4.7; for Percent Gcase Activation 1 μM Test Compound: test compound at 1.0 μM
# T1 sequence (P04062 40-536): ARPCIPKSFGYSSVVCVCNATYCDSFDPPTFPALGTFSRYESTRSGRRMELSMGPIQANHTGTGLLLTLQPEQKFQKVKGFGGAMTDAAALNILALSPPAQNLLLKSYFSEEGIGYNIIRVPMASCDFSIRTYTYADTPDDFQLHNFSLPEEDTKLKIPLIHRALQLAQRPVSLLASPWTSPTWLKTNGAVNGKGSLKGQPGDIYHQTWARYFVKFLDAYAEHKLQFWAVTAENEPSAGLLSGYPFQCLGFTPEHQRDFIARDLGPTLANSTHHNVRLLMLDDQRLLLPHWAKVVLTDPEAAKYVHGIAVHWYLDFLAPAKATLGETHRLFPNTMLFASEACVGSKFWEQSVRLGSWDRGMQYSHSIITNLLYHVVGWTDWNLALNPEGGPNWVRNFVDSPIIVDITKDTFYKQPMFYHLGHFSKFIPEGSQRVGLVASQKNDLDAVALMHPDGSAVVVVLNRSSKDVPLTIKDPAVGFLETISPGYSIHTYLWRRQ
# Procedure, shortened: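 10 nM GCase with 100 nM saposin C in Triton/phosphatidylserine micelles (citrate-phosphate, pH 4.7), pre-incubated 30 min at room temperature with compound, then 2 mM 4-methylumbelliferyl-β-D-glucoside stock mixed 1:1; 15 min reaction, stopped with glycine pH 12.5, fluorescence at 365/440 nm. Activation scored at 1.0 and 0.1 μM; 8-point curves from 5 μM top.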
# [2] = Compound solubility in water; type: physicochemical
Compound,activation at 0.1 µM [1] [%],activation at 1 µM [1] [%],solubility [2] [µg/mL],Compound Solubility in Water [2] [µg/mL],Percent Gcase Activation 1 μM Test Compound [1],Percent Gcase Activation 0.1 μM Test Compound [1]
CCc1cc(C)nc2c(C(=O)N[C@H]3CC[C@H](OC(C)(C)C)CC3)ccn12 [IV-5],10 to 20,> 60,8.1,–,–,–
CCc1cc(C)n2ccc(C(=O)N[C@H]3CC[C@H](OC(C)(C)C)CC3)c2n1 [IV-6],10 to 20,> 60,7.9,–,–,–
Cc1cc(-c2cccc(C(N)=O)c2)nc2c(C(=O)NC(C3CC3)C(F)(F)F)ccn12 (stereo not drawn) [IV-7],> 20,> 60,0.4,–,–,–
Cc1cc(C(F)F)n2ccc(C(=O)N[C@H]3CC[C@H](OC(C)(C)C)CC3)c2n1 [IV-8],10 to 20,> 60,0.9,–,–,–
Cc1cc(C(F)F)n2ccc(C(=O)N[C@H]3CC[C@H](OCC(C)C)CC3)c2n1 [IV-9],> 20,> 60,1.5,–,–,–
Cc1cc(C(F)F)n2ccc(C(=O)N[C@H]3CC[C@H](OCC(C)(C)C)CC3)c2n1 [IV-10],> 20,> 60,0.3,–,–,–
CCCO[C@H]1CC[C@H](NC(=O)c2ccn3c(C(F)F)cc(C)nc23)CC1 [IV-11],> 20,> 60,9,–,–,–
CCCO[C@H]1CC[C@H](NC(=O)c2ccn3c(C)cc(C(F)F)nc23)CC1 [IV-12],10 to 20,> 60,18.5,–,–,–
Cc1cc(C(F)F)nc2c(C(=O)N[C@H]3CC[C@H](OCC(C)C)CC3)ccn12 [IV-13],> 20,> 60,5,–,–,–
Cc1cc(C(F)F)nc2c(C(=O)N[C@H]3CC[C@H](OCC(C)(C)C)CC3)ccn12 [IV-14],> 20,> 60,0.8,–,–,–
CCCCO[C@H]1CC[C@H](NC(=O)c2ccn3c(C)cc(N4CCOCC4)nc23)CC1 [IV-15],10 to 20,> 60,8.4,–,–,–
Cc1cc(C)n2ccc(C(=O)NC(C3CC3)C(F)(F)F)c2n1 (stereo not drawn) [IV-16],> 20,> 60,3.1,–,–,–
Cc1cc(C)n2c(F)cc(C(=O)N[C@@H](C)C3CC3)c2n1 [IV-17],10 to 20,> 60,21.6,–,–,–
Cc1cc(C)n2ccc(C(=O)NC(C)(C)c3ccc4c(c3)OCCO4)c2n1 [IV-19],> 20,> 60,2.1,–,–,–
Cc1cc(C)n2ccc(C(=O)NC(C)(C)c3ccccc3Cl)c2n1 [IV-22],10 to 20,> 60,1.3,–,–,–
Cc1cc(C)n2ccc(C(=O)NC(C)c3cccc4ccccc34)c2n1 (stereo not drawn) [IV-23],10 to 20,> 60,–,0.2,–,–
Cc1cc(C)n2ccc(C(=O)NC(C)c3cccc4ccccc34)c2n1 (stereo not drawn) [IV-26],–,–,–,0.2,+++ (Gcase activation greater than 60%),** (Gcase activation in the range of 10% up to 20%)
Cc1cc(C)n2ccc(C(=O)NC(C)(c3ccccc3)c3ccccc3)c2n1 [IV-39],10 to 20,> 60,0.8,–,–,–
Cc1cc(C)n2ccc(C(=O)NC(C)(C)c3cccc(Cl)c3)c2n1 [IV-40],–,–,1.5,–,+++ (Gcase activation greater than 60%),** (Gcase activation in the range of 10% up to 20%)
Cc1cc(C)n2ccc(C(=O)NC(CC3CCC3)c3ccccc3)c2n1 (stereo not drawn) [IV-41],> 20,> 60,0.5,–,–,–
Cc1cccc(C2CC2C(C)NC(=O)c2ccn3c(C)cc(C)nc23)c1 (stereo not drawn) [IV-42],> 20,> 60,1.1,–,–,–
Cc1cc(C)n2ccc(C(=O)NC(C)c3cccc4ccccc34)c2n1 (stereo not drawn) [IV-47],–,–,–,0.7,+++ (Gcase activation greater than 60%),*** (greater than 20% Gcase activation)
Cc1cc(C)n2ccc(C(=O)NC(C)(C)c3cccc4ccccc34)c2n1 [IV-48],> 20,> 60,0.6,–,–,–
Cc1cc(C)n2ccc(C(=O)NC(C)c3cn(C)c4ccccc34)c2n1 (stereo not drawn) [IV-49],10 to 20,> 60,2.1,–,–,–
CCOc1ccc(C(CC)NC(=O)c2ccn3c(C)cc(C)nc23)cc1F (stereo not drawn) [IV-51],> 20,> 60,0.3,–,–,–

# Continued, in another order:
activation at 0.1 µM [1] [%],activation at 1 µM [1] [%],solubility [2] [µg/mL],Compound Solubility in Water [2] [µg/mL],Percent Gcase Activation 1 μM Test Compound [1],Compound,Percent Gcase Activation 0.1 μM Test Compound [1]
> 20,> 60,2.5,–,–,Cc1cc(C)n2ccc(C(=O)N[C@@H](C)c3ccccc3F)c2n1 [IV-20],–
> 20,> 60,3.3,–,–,Cc1cc(C)n2ccc(C(=O)N[C@@H](C)c3ccc(F)cc3)c2n1 [IV-21],–
< 10,> 60,5.3,–,–,COc1ccc([C@@H](C)NC(=O)c2ccn3c(C)cc(C)nc23)cc1 [IV-24],–
> 20,> 60,0.6,–,–,Cc1cc(C)n2ccc(C(=O)N[C@H](C)c3ccc(Cl)cc3)c2n1 [IV-25],–
> 20,> 60,3,–,–,COc1ccccc1[C@H](C)NC(=O)c1ccn2c(C)cc(C)nc12 [IV-27],–
10 to 20,> 60,0.7,–,–,Cc1cc(C)n2ccc(C(=O)N[C@@H](C)c3cccc(Cl)c3)c2n1 [IV-28],–
10 to 20,> 60,2.3,–,–,COc1ccccc1[C@@H](C)NC(=O)c1ccn2c(C)cc(C)nc12 [IV-29],–
10 to 20,> 60,2.6,–,–,Cc1ccc([C@H](C)NC(=O)c2ccn3c(C)cc(C)nc23)cc1 [IV-30],–
> 20,> 60,0.2,–,–,Cc1cc(C)n2ccc(C(=O)NC(C)c3ccc4ccccc4c3)c2n1 (stereo not drawn) [IV-31],–
10 to 20,> 60,7.8,–,–,COc1cccc([C@@H](C)NC(=O)c2ccn3c(C)cc(C)nc23)c1 [IV-32],–
10 to 20,> 60,9.4,–,–,COc1cccc([C@H](C)NC(=O)c2ccn3c(C)cc(C)nc23)c1 [IV-33],–
> 20,> 60,2,–,–,CCc1ccc(C(C)NC(=O)c2ccn3c(C)cc(C)nc23)cc1 (stereo not drawn) [IV-44],–
< 10,30 to 60,5.7,–,–,Cc1cc(C)n2ccc(C(=O)NC(C)c3ccc4c(c3)OCO4)c2n1 (stereo not drawn) [IV-45],–
> 20,> 60,0.4,–,–,Cc1cc(C)n2ccc(C(=O)N[C@@H](C)c3ccc(Cl)cc3)c2n1 [IV-46],–
< 10,30 to 60,24.7,–,–,CCC(NC(=O)c1ccn2c(C)cc(C)nc12)c1cccnc1 (stereo not drawn) [IV-50],–
